Measurements taken from patent publication US10570131B2, “Heterocyclic compounds and their use in preventing or treating bacterial infections” (MUTABILIS, priority 2015, dated 2020).
Structures can show the parent of a compound that is named as a salt.

Key:
CTX-M-15 = biological target: T1, CTX-M-15 (Escherichia coli, UniProt Q9EXV5); test: β-lactamase inhibitory activity, IC50 (nitrocefin hydrolysis); type: biochemical
T1 construct: made in house; host or cells: E. coli expression vector
Method: (§1) Method 1: β-lactamase Inhibitory Activity, Determination of IC50 (Table 1)
(§2) Enzyme activity was monitored by spectrophotometric measurement of nitrocefin (NCF—TOKU-E, N005) hydrolysis at 485 nm, at room temperature and in assay buffer A: 100 mM Phosphate pH7, 2% glycerol and 0.1 mg/mL Bovine serum albumin (Sigma, B4287). Enzymes were cloned in E. coli expression vector, expressed and purified in house using classical procedures. To a transparent polystyrene plate (Corning, 3628) were added in each well 5 μL DMSO or inhibitor dilutions in DMSO and 80 μL enzyme in buffer A. Plates were immediately read at 485 nm in a microplate spectrophotometer (BioTek, PowerWave HT) to enable background subtraction. After 30 min of pre-incubation at room temperature, 15 μL of NCF (200 μM final) were finally added in each well. Final enzyme concentrations were 0.1 nM (TEM-1), 0.075 nM (SHV-1), 0.4 nM (CTX-M-15), 1 nM (KPC-2), 0.2 nM (P99 AmpC), 0.2 nM (CMY-37), 0.4 nM (AmpC P. aeruginosa), 0.2 nM (OXA-1), 1.2 nM (OXA-11), 0.4 nM (OXA-15) and 0.3 nM (OXA-48). After 20 min incubation at room temperature, plates were once again read at 485 nm. Enzyme activity was obtained by subtracting the final signal by the background, and was converted to enzyme inhibition using non inhibited wells. IC50 curves were fitted to a classical Langmuir equilibrium model with Hill slope using XLFIT (IDBS).

KPC-2 = biological target: T2, KPC-2 (Klebsiella pneumoniae, UniProt Q9F663); test: as above; type: biochemical
T2 construct: made in house; host or cells: E. coli expression vector
T2 sequence (Q9F663 25-293 limits assumed): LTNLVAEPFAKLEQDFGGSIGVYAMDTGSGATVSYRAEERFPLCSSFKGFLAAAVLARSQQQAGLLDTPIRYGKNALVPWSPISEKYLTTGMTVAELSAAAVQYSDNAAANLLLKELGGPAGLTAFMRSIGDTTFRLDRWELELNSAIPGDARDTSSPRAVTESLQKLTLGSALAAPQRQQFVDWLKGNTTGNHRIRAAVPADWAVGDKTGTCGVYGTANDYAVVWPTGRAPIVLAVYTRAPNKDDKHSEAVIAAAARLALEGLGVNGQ
Method: as §1, §2

OXA-1 = biological target: T3, OXA-1 (Escherichia coli, UniProt P13661); test: as above; type: biochemical
T3 construct: made in house; host or cells: E. coli expression vector
T3 sequence (P13661 26-276): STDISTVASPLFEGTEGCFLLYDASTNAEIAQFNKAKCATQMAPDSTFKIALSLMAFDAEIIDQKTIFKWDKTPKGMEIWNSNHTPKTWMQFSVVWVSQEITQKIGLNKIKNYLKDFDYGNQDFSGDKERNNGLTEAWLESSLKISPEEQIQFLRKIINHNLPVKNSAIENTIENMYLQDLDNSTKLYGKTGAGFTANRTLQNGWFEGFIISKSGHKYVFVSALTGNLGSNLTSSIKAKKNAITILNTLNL
Method: as §1, §2

OXA-11 = biological target: T4, OXA-11 (Pseudomonas aeruginosa, UniProt Q06778); test: as above; type: biochemical
T4 construct: made in house; host or cells: E. coli expression vector
T4 sequence (Q06778 21-266): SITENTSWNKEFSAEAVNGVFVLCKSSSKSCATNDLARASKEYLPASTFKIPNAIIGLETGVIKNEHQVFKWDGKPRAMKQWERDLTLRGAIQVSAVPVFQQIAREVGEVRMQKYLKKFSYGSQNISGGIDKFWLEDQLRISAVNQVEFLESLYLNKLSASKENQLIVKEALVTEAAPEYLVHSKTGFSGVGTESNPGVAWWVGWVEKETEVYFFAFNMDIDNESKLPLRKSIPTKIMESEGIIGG
Method: as §1, §2

OXA-48 = biological target: T5, OXA-48 (Klebsiella pneumoniae, UniProt Q6XEC0); test: as above; type: biochemical
T5 construct: made in house; host or cells: E. coli expression vector
T5 sequence (Q6XEC0 23-265 limits assumed): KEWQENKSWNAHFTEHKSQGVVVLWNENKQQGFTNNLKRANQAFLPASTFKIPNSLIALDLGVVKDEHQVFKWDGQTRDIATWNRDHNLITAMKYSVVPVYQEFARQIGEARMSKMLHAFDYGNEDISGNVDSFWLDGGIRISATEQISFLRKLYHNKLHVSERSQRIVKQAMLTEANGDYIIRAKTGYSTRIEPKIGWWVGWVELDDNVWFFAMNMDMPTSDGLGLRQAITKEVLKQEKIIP
Method: as §1, §2

SHV-1 = biological target: T6, SHV-1 (Klebsiella pneumoniae, UniProt P0AD64); test: as above; type: biochemical
T6 construct: made in house; host or cells: E. coli expression vector
T6 sequence (P0AD64 22-286): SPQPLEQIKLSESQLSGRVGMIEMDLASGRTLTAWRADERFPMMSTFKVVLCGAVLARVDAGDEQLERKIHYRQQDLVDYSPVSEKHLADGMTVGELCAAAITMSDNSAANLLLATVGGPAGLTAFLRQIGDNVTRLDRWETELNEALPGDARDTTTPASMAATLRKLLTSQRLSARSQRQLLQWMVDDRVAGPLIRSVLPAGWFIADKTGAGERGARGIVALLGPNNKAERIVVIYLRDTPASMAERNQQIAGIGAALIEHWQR
Method: as §1, §2

TEM-1 = biological target: T7, TEM-1 (Escherichia coli, UniProt P62593); test: as above; type: biochemical; conditions: class (A); 30 min pre-incubation; NCF 200 μM
T7 construct: made in house; host or cells: E. coli expression vector
T7 sequence (P62593 24-286 limits assumed): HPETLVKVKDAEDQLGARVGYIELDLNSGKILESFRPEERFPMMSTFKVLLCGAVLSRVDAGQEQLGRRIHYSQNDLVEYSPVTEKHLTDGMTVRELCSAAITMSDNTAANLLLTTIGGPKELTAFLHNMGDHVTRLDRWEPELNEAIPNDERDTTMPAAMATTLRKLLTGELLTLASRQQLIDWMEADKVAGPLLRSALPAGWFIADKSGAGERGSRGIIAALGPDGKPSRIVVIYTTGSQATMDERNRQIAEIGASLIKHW
Method: as §1, §2

AmpC (P99) = biological target: T8, AmpC (P99) (Enterobacter cloacae, UniProt P05364); test: biochemical
T8 construct: made in house; host or cells: E. coli expression vector
T8 sequence (P05364 21-381): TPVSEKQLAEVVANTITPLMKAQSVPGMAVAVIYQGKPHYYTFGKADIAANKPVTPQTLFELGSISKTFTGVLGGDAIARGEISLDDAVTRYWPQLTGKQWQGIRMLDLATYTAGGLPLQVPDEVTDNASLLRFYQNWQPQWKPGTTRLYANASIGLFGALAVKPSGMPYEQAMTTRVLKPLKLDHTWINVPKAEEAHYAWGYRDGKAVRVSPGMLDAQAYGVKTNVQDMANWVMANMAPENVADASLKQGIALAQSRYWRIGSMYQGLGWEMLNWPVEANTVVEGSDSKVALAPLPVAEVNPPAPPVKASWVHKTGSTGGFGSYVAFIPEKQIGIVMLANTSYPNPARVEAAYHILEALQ
Method: as §1, §2

OXA-15 = biological target: T9, OXA-15 (Pseudomonas aeruginosa, UniProt Q51574); test: biochemical
T9 construct: made in house; host or cells: E. coli expression vector
T9 sequence (Q51574 22-275): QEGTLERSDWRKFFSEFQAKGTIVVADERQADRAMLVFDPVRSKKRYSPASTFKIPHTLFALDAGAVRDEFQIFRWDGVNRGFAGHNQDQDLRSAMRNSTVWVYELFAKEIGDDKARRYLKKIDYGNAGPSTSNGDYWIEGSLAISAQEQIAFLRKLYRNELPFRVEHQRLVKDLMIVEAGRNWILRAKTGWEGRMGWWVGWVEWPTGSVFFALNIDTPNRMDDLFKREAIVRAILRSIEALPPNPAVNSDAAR
Method: as §1, §2

E. cloacae 260508 = test: MIC of ceftazidime alone and in combination with compounds (synergy), broth microdilution; type: cell-based; conditions: MIC of ceftazidime with compound fixed at 4 μg/mL; strain 260508 (TEM-1, CTX-M-15)
E. coli UFR61O = test: as above; type: cell-based; conditions: MIC of ceftazidime with compound fixed at 4 μg/mL; strain UFR61O (TEM-1, KPC-2)
K. pneumoniae 160143 = test: as above; type: cell-based; conditions: MIC of ceftazidime with compound fixed at 4 μg/mL; strain 160143 (TEM-1, SHV-1, CTX-M-15, KPC-2, OXA-1)
K. pneumoniae UFR68 = type: cell-based; conditions: MIC of ceftazidime with compound fixed at 4 μg/mL; strain UFR68 (TEM-1, SHV-11, CTX-M-15, KPC-3)
E. cloacae P99 = test: MIC of ceftazidime alone and in combination with compounds (synergy), broth microdilution; type: cell-based; conditions: MIC of ceftazidime with compound fixed at 4 μg/mL; strain P99 (AmpC)
E. cloacae UFR85 = test: as above; type: cell-based; conditions: MIC of ceftazidime with compound fixed at 4 μg/mL; strain UFR85 (TEM-1, CTX-M-15, derepressed AmpC)
E. cloacae UFR70 = test: as above; type: cell-based; conditions: MIC of ceftazidime with compound fixed at 4 μg/mL; strain UFR70 (TEM-1, CTX-M-15, CMY-2, OXA-1, Porin loss)
E. coli UFR18 = test: as above; type: cell-based; conditions: MIC of ceftazidime with compound fixed at 4 μg/mL; strain UFR18 (CTX-M-15, OXA-204)
K. oxytoca UFR21 = test: as above; type: cell-based; conditions: MIC of ceftazidime with compound fixed at 4 μg/mL; strain UFR21 (TEM-1, CTX-M-15, OXA-48)
K. pneumoniae UFR24 = type: cell-based; conditions: MIC of ceftazidime with compound fixed at 4 μg/mL; strain UFR24 (TEM-1, SHV-2, SHV-11, OXA-1, OXA-48, OXA-47)
K. pneumoniae 200047 = test: MIC of ceftazidime alone and in combination with compounds (synergy), broth microdilution; type: cell-based; conditions: MIC of ceftazidime with compound fixed at 4 μg/mL; strain 200047 (TEM-1, SHV-32, CTX-M-15, OXA-1)
E. coli 190317 = test: as above; type: cell-based; conditions: MIC of ceftazidime with compound fixed at 4 μg/mL; strain 190317 (TEM-1, SHV-12, CTX-M-15, OXA-1)
E. coli UFR32 = test: as above; type: cell-based; conditions: MIC of ceftazidime with compound fixed at 4 μg/mL; strain UFR32 (TEM-1, VEB-1, OXA-10)

T1 sequence (Q9EXV5 entry or part of it): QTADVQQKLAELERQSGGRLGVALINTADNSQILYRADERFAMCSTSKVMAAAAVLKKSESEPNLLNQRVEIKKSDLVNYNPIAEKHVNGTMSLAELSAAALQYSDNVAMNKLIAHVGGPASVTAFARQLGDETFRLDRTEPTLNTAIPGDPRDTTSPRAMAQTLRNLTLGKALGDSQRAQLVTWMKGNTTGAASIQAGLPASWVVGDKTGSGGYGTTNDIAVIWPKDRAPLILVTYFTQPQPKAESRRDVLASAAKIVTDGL

Row | SMILES | IC50 (CTX-M-15) | IC50 (KPC-2) | IC50 (OXA-1) | IC50 (OXA-11) | IC50 (OXA-48) | IC50 (SHV-1) | IC50 (TEM-1) | IC50 (AmpC (P99)) | IC50 (OXA-15) | MIC, combination of CAZ and compounds of the invention at 4 μg/mL (E. cloacae 260508) | MIC, combination of CAZ and compounds of the invention at 4 μg/mL (E. coli UFR61O) | MIC, combination of CAZ and compounds of the invention at 4 μg/mL (K. pneumoniae 160143) | MIC, combination of CAZ and compounds of the invention at 4 μg/mL (K. pneumoniae UFR68) | MIC, combination of CAZ and compounds of the invention at 4 μg/mL (E. cloacae P99) | MIC, combination of CAZ and compounds of the invention at 4 μg/mL (E. cloacae UFR85) | MIC, combination of CAZ and compounds of the invention at 4 μg/mL (E. cloacae UFR70) | MIC, combination of CAZ and compounds of the invention at 4 μg/mL (E. coli UFR18) | MIC, combination of CAZ and compounds of the invention at 4 μg/mL (K. oxytoca UFR21) | MIC, combination of CAZ and compounds of the invention at 4 μg/mL (K. pneumoniae UFR24) | MIC, combination of CAZ and compounds of the invention at 4 μg/mL (K. pneumoniae 200047) | further results
1 | CNC(=O)CON=C1C[C@@H](C(N)=O)N2C[C@@H]1N(OS(=O)(=O)[O-])C2=O.[Na+] (mixture of isomers) [Example 2, sodium [(2S,5S)-2-carbamoyl-4-[2-(methylamino)-2-oxo-ethoxy]imino-7-oxo-1,6-diazabicyclo[3.2.1]octan-6-yl] sulfate] | 0.76 nM | 3.9 nM | 6.1 nM | 6.8 nM | 3.5 nM | 0.74 nM | 1.7 nM | 3.2 nM | 0.84 nM | 1 µg/mL | 0.5 µg/mL | 8 µg/mL | 64 µg/mL | 4 µg/mL | 1 µg/mL | 8 µg/mL | 1 µg/mL | 2 µg/mL | 2 µg/mL | 0.5 µg/mL | MIC, combination of CAZ and compounds of the invention at 4 μg/mL (E. coli 190317): ≤0.125 µg/mL; MIC, combination of CAZ and compounds of the invention at 4 μg/mL (E. coli UFR32): 0.5 µg/mL
2 | NC[C@@H]1CC(=NOCC(N)=O)[C@@H]2CN1C(=O)N2OS(=O)(=O)O (mixture of isomers) [Example 5, sodium and 2,2,2-trifluroacetate [(2S,5S)-4-(2-amino-2-oxo-ethoxy)imino-2-(azaniumylmethyl)-7-oxo-1,6-diazabicyclo[3.2.1]octan-6-yl] sulfate] | 130 nM | 1800 nM | 370 nM | 430 nM | 180 nM | 64 nM | 110 nM | 11000 nM | 8 nM | <0.25 µg/mL | <0.25 µg/mL | 0.5 µg/mL | 1 µg/mL | <0.25 µg/mL | ≤0.25 µg/mL | 1 µg/mL | <0.25 µg/mL | ≤0.25 µg/mL | 1 µg/mL | ≤0.25 µg/mL | MIC, combination of CAZ and compounds of the invention at 4 μg/mL (E. coli 190317): <0.25 µg/mL; MIC, combination of CAZ and compounds of the invention at 4 μg/mL (E. coli UFR32): ≤0.25 µg/mL
3 | NC[C@@H]1CC(=O)[C@@H]2CN1C(=O)N2OS(=O)(=O)O [Example 6, 2,2,2-trifluroacetate and sodium [(2S,5S)-2-(azaniumylmethyl)-4,7-dioxo-1,6-diazabicyclo[3.2.1]octan-6-yl] sulfate] | 510 nM | 5100 nM | 1200 nM | 1600 nM | 840 nM | 340 nM | 280 nM | 6400 nM | 68 nM | ≤0.25 µg/mL | 1 µg/mL | 2 µg/mL | 1 µg/mL | <0.25 µg/mL | ≤0.25 µg/mL | 2 µg/mL | ≤0.25 µg/mL | ≤0.25 µg/mL | 4 µg/mL | 1 µg/mL | MIC, combination of CAZ and compounds of the invention at 4 μg/mL (E. coli 190317): <0.25 µg/mL; MIC, combination of CAZ and compounds of the invention at 4 μg/mL (E. coli UFR32): <0.25 µg/mL
